This passage reports inhibition results from patent US20240270750A1, “IMIDAZOLE-CONTAINING INHIBITORS OF ALK2 KINASE” (BioCryst Pharmaceuticals, Inc., priority 2021, published 2024).

The structures appear in SMILES notation. A value given as a limit tells only on which side of the number the result lay.

This assay addresses T1, ALK2 (Homo sapiens, UniProt Q04771).
T1 construct: purchased ThermoFisher Scientific (Life Technologies)
T1 sequence (Q04771 21-509): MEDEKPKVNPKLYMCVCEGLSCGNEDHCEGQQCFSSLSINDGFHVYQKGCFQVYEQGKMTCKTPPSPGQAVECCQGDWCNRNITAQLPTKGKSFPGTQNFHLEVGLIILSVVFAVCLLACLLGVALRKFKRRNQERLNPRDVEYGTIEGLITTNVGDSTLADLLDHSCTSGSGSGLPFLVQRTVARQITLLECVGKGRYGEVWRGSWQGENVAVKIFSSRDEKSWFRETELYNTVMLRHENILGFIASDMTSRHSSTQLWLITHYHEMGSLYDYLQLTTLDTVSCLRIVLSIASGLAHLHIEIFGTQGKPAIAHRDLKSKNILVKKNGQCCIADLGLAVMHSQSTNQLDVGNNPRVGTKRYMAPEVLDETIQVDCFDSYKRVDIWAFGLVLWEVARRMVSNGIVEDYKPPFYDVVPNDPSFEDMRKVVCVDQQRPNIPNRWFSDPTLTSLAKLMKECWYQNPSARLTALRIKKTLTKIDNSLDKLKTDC
Briefly: LanthaScreen Eu Kinase Binding Assay, ALK2 inhibition. The conditions noted are these: 1 micromolar concentration. As to the method:
Biochemical assays to measure the inhibitory effects of the compounds were performed by ThermoFisher Scientific (Life Technologies). ALK2 inhibition was tested using LanthaScreen™ Eu Kinase Binding Assay screening protocol.
For orientation: Time-resolved FRET reads energy transfer from a long-lived donor to a nearby acceptor.

`CCn1ncc2c(Nc3cn(-c4cc(OC)c(OC)c(OC)c4)cn3)nc(C3CC3)nc21` [Compound 113d, 6-cyclopropyl-1-ethyl-N-(1-(3,4,5-trimethoxyphenyl)-1H-imidazol-4-yl)-1H-pyrazolo[3,4-d]pyrimidin-4-amine] displayed an inhibition at 1 µM of more than 50%.

Compound `COc1cc(-n2cnc(Nc3nc(C4CC4)nc4c3cnn4C)c2)cc(OC)c1OC` [Compound 114e, 6-cyclopropyl-1-methyl-N-(1-(3,4,5-trimethoxyphenyl)-1H-imidazol-4-yl)-1H-pyrazolo[3,4-d]pyrimidin-4-amine] showed an inhibition at 1 µM of more than 50%.

`COc1cc(-n2cnc(Nc3nc(C4CC4)nc4c3CCC4)c2)cc(OC)c1OC` [Compound 115b, 2-cyclopropyl-N-(1-(3,4,5-trimethoxyphenyl)-1H-imidazol-4-yl)-6,7-dihydro-5H-cyclopenta[d]pyrimidin-4-amine] returned an inhibition at 1 µM of more than 50%.

`COc1cc(-n2cnc(Nc3nc(C4CC4)nc4c3cnn4C3CC3)c2)cc(OC)c1OC` [Compound 116d, 1,6-dicyclopropyl-N-(1-(3,4,5-trimethoxyphenyl)-1H-imidazol-4-yl)-1H-pyrazolo[3,4-d]pyrimidin-4-amine]: the inhibition at 1 µM is more than 50%.

In turn, `COc1cc(-n2cnc(Nc3nc(C4CC4)nc4c3cnn4CC(C)C)c2)cc(OC)c1OC` [Compound 117e, 6-cyclopropyl-1-isobutyl-N-(1-(3,4,5-trimethoxyphenyl)-1H-imidazol-4-yl)-1H-pyrazolo[3,4-d]pyrimidin-4-amine] had an inhibition at 1 µM of more than 50%.

For the compound `COc1cc(-n2cnc(Nc3nc(C4CC4)nc4c3cnn4C34CC(C3)C4)c2)cc(OC)c1OC` [Compound 118f, 1-(bicyclo[1.1.1]pentan-1-yl)-6-cyclopropyl-N-(1-(3,4,5-trimethoxyphenyl)-1H-imidazol-4-yl)-1H-pyrazolo[3,4-d]pyrimidin-4-amine], the inhibition at 1 µM is more than 50%.

`COc1cc(-n2cnc(Nc3nc(CC4CC4)nc4c3cnn4C(C)(C)C)c2)cc(OC)c1OC` [Compound 119e, 1-(tert-butyl)-6-(cyclopropylmethyl)-N-(1-(3,4,5-trimethoxyphenyl)-1H-imidazol-4-yl)-1H-pyrazolo[3,4-d]pyrimidin-4-amine] registered an inhibition at 1 µM of more than 50%.

For the compound `COc1cc(-n2cnc(Nc3nc(C4CC4)nc4c3cnn4CC3CC3)c2)cc(OC)c1OC` [Compound 120f, 6-cyclopropyl-1-(cyclopropylmethyl)-N-(1-(3,4,5-trimethoxyphenyl)-1H-imidazol-4-yl)-1H-pyrazolo[3,4-d]pyrimidin-4-amine], the inhibition at 1 µM was more than 50%.

The compound `COc1cc(-n2cnc(Nc3nc(CC4CC4)nc4c3cnn4CC3CC3)c2)cc(OC)c1OC` [Compound 121f, 1,6-bis(cyclopropylmethyl)-N-(1-(3,4,5-trimethoxyphenyl)-1H-imidazol-4-yl)-1H-pyrazolo[3,4-d]pyrimidin-4-amine] showed an inhibition at 1 µM of more than 50%.

In turn, `COc1cc(-n2cnc(Nc3nc(CC4CC4)nc4c3cnn4C3CC3)c2)cc(OC)c1OC` [Compound 122e, 1-cyclopropyl-6-(cyclopropylmethyl)-N-(1-(3,4,5-trimethoxyphenyl)-1H-imidazol-4-yl)-1H-pyrazolo[3,4-d]pyrimidin-4-amine] showed an inhibition at 1 µM of more than 50%.

Turning to `COc1cc(-n2cnc(Nc3nc(CC4CC4)nc4c3cnn4C34CC(C3)C4)c2)cc(OC)c1OC` [Compound 123e, 1-(bicyclo[1.1.1]pentan-1-yl)-6-(cyclopropylmethyl)-N-(1-(3,4,5-trimethoxyphenyl)-1H-imidazol-4-yl)-1H-pyrazolo[3,4-d]pyrimidin-4-amine], the inhibition at 1 µM was more than 50%.

In turn, `CCn1ncc2c(Nc3cn(-c4cc(OC)c(OC)c(OC)c4)cn3)nc(CC3CC3)nc21` [Compound 124e, 6-(cyclopropylmethyl)-1-ethyl-N-(1-(3,4,5-trimethoxyphenyl)-1H-imidazol-4-yl)-1H-pyrazolo[3,4-d]pyrimidin-4-amine] gave an inhibition at 1 µM of more than 50%.

With `COc1cc(-n2cnc(Nc3nc(CC4CC4)nc4c3cnn4C)c2)cc(OC)c1OC` [Compound 125e, 6-(cyclopropylmethyl)-1-methyl-N-(1-(3,4,5-trimethoxyphenyl)-1H-imidazol-4-yl)-1H-pyrazolo[3,4-d]pyrimidin-4-amine], the inhibition at 1 µM is more than 50%.

`COc1cc(-n2cnc(Nc3nc(CC4CC4)nc4c3cnn4CC(C)C)c2)cc(OC)c1OC` [Compound 126e, 6-(cyclopropylmethyl)-1-isobutyl-N-(1-(3,4,5-trimethoxyphenyl)-1H-imidazol-4-yl)-1H-pyrazolo[3,4-d]pyrimidin-4-amine] displayed an inhibition at 1 µM of more than 50%.

For `COc1cc(-n2cnc(Nc3nc(CC(C)C)nc4c3CCC4)c2)cc(OC)c1OC` [Compound 127b, 2-isobutyl-N-(1-(3,4,5-trimethoxyphenyl)-1H-imidazol-4-yl)-6,7-dihydro-5H-cyclopenta[d]pyrimidin-4-amine], the inhibition at 1 µM was more than 50%.

The inhibition is how much of the control response was suppressed.
